Measured values reported in US20250090437A1, “COSMETIC COMPOUNDING AGENT, COSMETIC AND PRODUCTION METHOD THEREOF” (MIYOSHI OIL & FAT CO., LTD., priority 2019, published 2025).

Experiment: Water retention property test 2 (hydrates)
Type: physicochemical
Details: hydrate (anhydrides: aqueous solution at mono- to trihydrate concentration); for Pre-test moisture rate: before the test; for Post-test moisture rate / Rate of reduction in moisture: unsealed, 24 hours at 40° C. and 25% RH
Experimental: (2) Water retention property test 2 The water retention property of the hydrate of each compound was evaluated. Hydrates were used in the cases of the compounds C1 to C38, C40 to C49 and C56 to C59; however, since the compounds C39 and C62 to C64 were anhydrides, there were used aqueous solutions prepared by adding water so that a concentration would be that of monohydrate to trihydrate. The moisture rate of the sample(s) was confirmed using a Karl Fischer moisture meter (pre-test moisture rate: A). Next, 1.0 g of each of these samples was added to a screw tube, and this screw tube, while remaining unsealed, was then left to stand still for 24 hours in a thermo-hygrostat set to 40° C. and 25% RH. A moisture rate after 24 hours was again measured (post-test moisture rate: B), followed by calculating a rate of reduction in moisture in a similar manner as above so as to evaluate the water retention property. Here, a comparative evaluation was performed on each hydrate of the compounds C1 to C38, C40 to C49 and C56 to C59 together with an aqueous solution(s) of the compound C39 having a concentration(s) corresponding to the numbers of these hydration waters.
(monohydrates in compounds C1 to C38, C40 to C49 and C56 to C59 of working examples C62 to C99, C103 to C116 with compound C39 of working example C100, compound C62 of comparative example C4, compound C63 of comparative example C7 and compound C64 of comparative example C10)
(dihydrates in compounds C1 to C38, C40 to C49 and C56 to C59 of working examples C62 to C99, C103 to C116 with compound C39 of working example C101, compound C62 of comparative example C5, compound C63 of comparative example C8 and compound C64 of comparative example C11)
(trihydrates in compounds C1 to C38, C40 to C49 and C56 to C59 of working examples C62 to C99, C103 to C116 with compound C39 of working example C102, compound C62 of comparative example C6, compound C63 of comparative example C9 and compound C64 of comparative example C12)

Compound | Pre-test moisture rate [%] | Post-test moisture rate [%] | Rate of reduction in moisture [%]
NC(CO)(CO)CO.O=C(O)CC(O)(CC(=O)O)C(=O)O [Working example C82] | 10.3 | 9.8 | 5.0
C[N+](C)(CCO)CC(O)CO.[Cl-] (stereo not drawn) [Working example C98] | 15.3 | 14.0 | 8.7
NC(CO)CO.O=C(O)CCC(=O)O [Working example C70] | 14.7 | 13.9 | 5.4
CC(O)C(=O)O.NC(CO)(CO)CO [Working example C81] | 13.2 | 12.9 | 2.6
CC(O)C(=O)[O-].CCCC[N+](CCCC)(CCCC)CCCC [Working example C102] | 14.0 | 12.3 | 12.0
CC(N)(CO)CO.O=C1O[C@H]([C@@H](O)CO)C(O)=C1O [Working example C116] | 11.4 | 11.1 | 2.9
CC(O)C(=O)O.NCCO (stereo not drawn) [Working example C62] | 10.7 | 10.5 | 1.9
NC(CO)CO.O=C(O)CO [Working example C68] | 17.7 | 17.3 | 2.0
CCCCn1cc[n+](C)c1.F[B-](F)(F)F [Comparative example C8] | 13.8 | 7.1 | 48.6
CC(O)C(=O)[O-].CCCC[N+](CCCC)(CCCC)CCCC [Working example C100] | 5.2 | 4.9 | 6.4
C[N+](C)(C)CCO.O=[PH2][O-] [Working example C95] | 9.6 | 9.3 | 2.9
CCCCn1cc[n+](C)c1.F[B-](F)(F)F [Comparative example C9] | 19.3 | 11.2 | 42.1
C[N+](C)(C)CCO.O=C([O-])C=CC(=O)O [Working example C91] | 7.6 | 7.2 | 5.0
CS(=O)(=O)O.NC(CO)(CO)CO [Working example C83] | 14.2 | 14.0 | 1.1
CC(O)C(=O)O.OCCN(CCO)CCO [Working example C66] | 18.4 | 17.7 | 3.8
CC(C)(N)CO.O=C1OC(C(O)CO)C(O)=C1O (stereo not drawn) [Working example C115] | 12.0 | 11.7 | 2.9
O=C1O[C@H]([C@@H](O)CO)C(O)=C1O.OCCNCCO [Comparative example C104] | 11.4 | 11.0 | 3.5
C[N+](C)(CCO)CC(O)C[N+](C)(C)CCO.[Cl-].[Cl-] [Working example C99] | 10.5 | 9.4 | 10.2
CCCC[N+](CCCC)(CCCC)CCCC.[Br-] [Comparative example C4] | 2.5 | 4.9 | 8.1
O=C(O)CCC(=O)O.OCCNCCO [Working example C65] | 13.9 | 13.1 | 6.0

Compound | Pre-test moisture rate [%] | Post-test moisture rate [%] | Rate of reduction in moisture [%]
CC(=O)OCC[N+](C)(C)C.O=C1O[C@H]([C@@H](O)CO)C([O-])=C1O [Working example C112] | 10.1 | 9.9 | 2.0
Br.NC(CO)CO [Working example C74] | 17.3 | 15.7 | 9.5
CCC(N)(CO)CO.Cl [Working example C80] | 18.8 | 17.0 | 9.8
OCC(O)CO [Comparative example C10] | 16.4 | 15.3 | 6.7
CC(O)C(=O)[O-].CCC(CO)(CO)[N+](CC(O)CO)(CC(O)CO)CC(O)CO (stereo not drawn) [Working example C86] | 7.9 | 7.5 | 4.8
C[N+](C)(C)CCO.O=C1OC(C(O)CO)C([O-])=C1O (stereo not drawn) [Working example C110] | 11.4 | 11.2 | 1.8
CC(=O)[O-].C[N+](C)(C)CCO [Working example C88] | 9.9 | 9.5 | 4.0
CCCCn1cc[n+](C)c1.F[B-](F)(F)F [Comparative example C7] | 7.4 | 3.9 | 47.3
CC(O)C(=O)O.NCC(O)C(O)C(O)C(O)CO (stereo not drawn) [Working example C84] | 11.7 | 11.4 | 2.8
CC(O)C(=O)[O-].OCC[N+](CCO)(CCO)CCO [Working example C87] | 11.2 | 10.7 | 4.8
CC(O)C(=O)O.NC(CO)CO (stereo not drawn) [Working example C69] | 16.6 | 16.1 | 2.8
C[N+](C)(C)CCO.O=C([O-])CCC(=O)O [Working example C92] | 7.5 | 7.1 | 5.0
NCCO.O=C1O[C@H]([C@@H](O)CO)C(O)=C1O [Working example C103] | 13.2 | 13.0 | 1.5
CC(O)C(=O)O.CCC(N)(CO)CO [Working example C76] | 14.7 | 14.3 | 3.0
NC(CO)CO.O=C1O[C@H]([C@@H](O)CO)C(O)=C1O [Comparative example C106] | 11.9 | 11.7 | 1.7
CC(C)(N)CO.CC(O)C(=O)O [Working example C113] | 16.7 | 16.3 | 2.5
CCC(N)(CO)CO.CS(=O)(=O)O [Working example C78] | 14.3 | 14.2 | 0.9
Cl.NC(CO)CO [Working example C75] | 22.0 | 19.7 | 10.5
CS(=O)(=O)[O-].C[N+](C)(C)CCO [Working example C93] | 8.3 | 8.1 | 2.0
